Experiments:
[1] = system: Human bone marrow-derived mesenchymal stem cells (MSCs); experiment: MSC osteogenesis assay: Alizarin Red S osteoblast mineralization, with concomitant assessment of fat cell formation; format: cell-based; conditions: for osteogenic formation from MSCs: MSCs in osteogenic medium, test agent at 1, 2, 4, 10 or 20 μM every 2nd day for 21 days, Alizarin Red S; for profile of fat (AD) versus osteogenic (OS) effects during dose progression (bone should predominate): dose progression 1-20 μM
Procedure: Human bone marrow-derived mesenchymal stem cells (MSCs) were taken through 2-3 passages and distributed across a 24 well plate at a density of 1×10^5 cells/cm^2. The plates were cultured in α-MEM with 20% FBS for 1 day at 37° C. On day 2 the medium was switched to osteogenic media (Stem X-Vivo, R&D System, Minneapolis, Minn.) containing 10% FBS plus 50 μg/ml ascorbic acid and 3 mM β-glycerol-phosphate. MSCs were cultured in the osteogenic medium without (vehicle negative control) or with test agents at 1, 2, 4, 10 or 20 μM supplied every 2nd day for 21 days. GW 0427 (standard PPAR ligand as positive control) was delivered by the same regimen on every plate to account for experimental variation.
Plates were washed twice with ice-cold PBS and incubated in 50 mM Tris-HCl (pH 7.6). The cells were treated with 2% Alizarin Red S (pH 4.2) for 10 min and then washed with distilled water. Stained cells were visualized by phase-contrast microscopy to determine cell morphology and to verify the presence of mineralized nodules (red images). The intensities of the images were assessed by Image-Pro Analyzer (Media Cybernetics, Inc., Bethesda, Md.).

For `Cc1nc(-c2ccccc2)sc1CCOc1ccc(C=CC(=O)O)cc1` [BK-3-51, 4-[[4-Methyl-2-phenylthiazol-5-yl]methyl]methoxycinnamic Acid], which melting point is on record?
Its melting point is 209 to 211 °C.

For `Cc1nc(-c2ccc(C(F)(F)F)cc2)sc1CNc1ccc(C=CC(=O)O)cc1` [BK-4-03, 4-[N-[5-Methylene-4-methyl-2-[4-(trifluoromethyl)phenyl]thiazole]]aminocinnamic Acid], which “osteogenic formation from MSCs” value [1] is on record?
The value was “Increased osteogenic formation”.

With `Cc1nc(-c2ccc(C(F)(F)F)cc2)sc1CSc1ccc(C=CC(=O)O)cc1` [BK-4-04, 4-Thio-[5-methylene-4-methyl-2-[4-(trifluoromethyl)phenyl]thiazole]cinnamic Acid] as the compound, how does the “osteogenic formation from MSCs” value [1] read?
The value was “Increased osteogenic formation”.

Which “profile of fat (AD) versus osteogenic (OS) effects during dose progression (bone should predominate)” value ([1]; MSC assay) does the source give for `Cc1nc(-c2ccc(C(F)(F)F)cc2)sc1CN(C)c1ccc(C=CC(=O)O)cc1` [BK-4-15, 4-[N-Methyl-N-[5-methylene-4-methyl-2-[4-(trifluoromethyl)phenyl]thiazole]]aminocinnamic Acid] here?
The value was “most preferred profile”.

And the “osteogenic formation from MSCs” value [1]?
The value was “Increased osteogenic formation”.

With `Cc1nc(-c2ccc(C(F)(F)F)c(F)c2)sc1CNc1ccc(C=CC(=O)O)cc1` [BK-4-30, 4-[N-[5-methylene-4-methyl-2-[3-fluoro-4-(trifluoromethyl)phenyl]thiazole]]aminocinnamic Acid] as the compound, how does the “profile of fat (AD) versus osteogenic (OS) effects during dose progression (bone should predominate)” value ([1]; MSC assay) read?
Its value is “not as suitable”.

Which results are given for `Cc1cc(SCc2sc(-c3ccc(C(F)(F)F)c(F)c3)nc2C)ccc1OCC(=O)O` [GW0742, reference compound]?
OS activity as dose range continued to 10 and 20 uM ([1]; MSC assay, 10 and 20 uM, estimated, averaged effects): decreased; profile of fat (AD) versus osteogenic (OS) effects during dose progression (bone should predominate) ([1]; MSC assay): initially demonstrates such a preference

Which results are given for `Cc1nc(-c2ccc(C(F)(F)F)c(F)c2)sc1COc1ccc(C=CC(=O)O)cc1` [JM-4-57, 4-[Oxo-[5-methylene-4-methyl-2-[3-fluoro-4-(trifluromethyl)phenyl]thiazole]]cinnamic Acid]?
osteogenic formation from MSCs [1]: Increased osteogenic formation; concentration at which osteogenic activity peaks ([1]; MSCs, 21 days, doses 1-20 μM): 10 µM
